Assay results taken from a compilation of properties of binary mixtures (doi:10.1021/acs.jced.8b00965).

Experiment: xn = mol fraction of the nth substance listed
Settings: 100 kPa

C[N+](C)(C)CCC[N+]1(C)CCCCC1.N#C[N-]C#N.N#C[N-]C#N + CO
viscosity [mPa·s]
Settings	x1 = 0.0999	x1 = 0.2001	x1 = 0.3002	x1 = 0.3999	x1 = 0.5002	x1 = 0.6001	x1 = 0.7003	x1 = 0.7998	x1 = 0.8995	x1 = 1
293.15 K	4.25	14.7	39.6	109	–	–	1181	1884	2855	4503
303.15 K	3.58	–	–	70.3	–	330	610	920	1281	1837
313.15 K	3.09	8.9	20.3	46.7	100	203	337	489	646	860
323.15 K	–	7.22	–	33.8	68	130	206	292	369	460
333.15 K	2.46	6	12.5	–	48.4	88.2	134	187	236	270

C[N+](C)(C)CCC[n+]1ccccc1.N#C[N-]C#N.N#C[N-]C#N + CO
viscosity [mPa·s]
Settings	x1 = 0.0999	x1 = 0.2001	x1 = 0.3002	x1 = 0.3999	x1 = 0.5002	x1 = 0.6001	x1 = 0.7003	x1 = 0.7998	x1 = 0.8995	x1 = 1
293.15 K	4.37	14.9	32.5	–	117	233	343	508	–	2191
303.15 K	3.66	11.4	23.1	45.9	–	131	–	255	396	830
313.15 K	–	9.01	17.4	–	–	81.1	110	–	198	–
323.15 K	2.82	7.36	–	–	–	–	70.6	90.5	116	210
333.15 K	–	–	11.4	–	28	–	49.3	60.6	76	127

CO + C[N+](C)(C)CCC[N+]1(C)CCCCC1.N#C[N-]C#N.N#C[N-]C#N
x2 = 0
Settings	viscosity [mPa·s]
303.15 K	0.508
313.15 K	0.446
333.15 K	0.352

CO + C[N+](C)(C)CCC[n+]1ccccc1.N#C[N-]C#N.N#C[N-]C#N
x2 = 0
Settings	viscosity [mPa·s]
293.15 K	0.584
303.15 K	0.508
313.15 K	0.446
323.15 K	0.395
333.15 K	0.352
